According to patent US4232014A, “Aminoalkylindans and use as hypotensive agents” (Marion Laboratories, Inc., priority 1979, dated 1980):

How the values were obtained:
[1] = Acute toxicity determination in mice (ALD50, ip); assay type: in vivo, female Swiss-Webster mice; details: in vivo, mouse, ip, 24 hours after administration
Experimental: (§1) Biological Methods--Acute toxicity determinations were performed in female Swiss-Webster mice, 15-24 g. Compounds were administered in aqueous solutions or as suspensions in 1% tragacanth by the intraperitoneal route to groups of three or more mice.

[2] = tested on: Desoxycorticosterone Hypertensive Rats; assay: Cardiovascular activity (blood pressure and heart rate) in desoxycorticosterone hypertensive rats; assay type: in vivo, male Charles River rats; details: 24 hr
Experimental: The indirect measurements of blood pressure and heart rate were determined in male Charles River rats made hypertensive (systolic blood pressure >159 mm Hg) by subcutaneously implanting a wax-formulated pellet containing 10 mg of desoxycorticosterone acetate. Systolic blood pressure was measured in the caudal arteries of prewarmed (40° C.), unanesthetized, restrained animals by a pneumatic pulse transducer placed distal to an automated tail pressure cuff and was recorded on a physiograph. Heart rate was determined from the amplified pulse waves recorded during the blood pressure measurements. Prior to the actual experiments, animals were accustomed to the measurement handling procedure several times during the preceding weeks.
Control systolic blood pressure and heart rates were determined in a group of usually six hypertensive rats on each day. A compound for evaluation was administered by intraperitoneal injection either in solution or as a suspension at 24 hr. intervals following injection. Mean values of the group for these parameters at a particular measurement period were calculated, and then the mean difference from control, along with its associated standard error, was calculated for each period. The statistical significance of the changes produced by a compound was tested by an analysis of variance and the Newman-Keuls a posteriori test when F was significant. A probability level of 0.05 or less was accepted as a significant change.
All compounds synthesized in this series, except V, were tested at a dosage level of 100 mg/kg. […] Another group of hypertensive rats was injected with 0.9% NaCl in a dose of 1 ml/kg. The latter group was included as a placebo group for the entire study.

[3] = tested on: Desoxycorticosterone Hypertensive Rats; assay: as above; assay type: in vivo, male Charles River rats
Mice = assay: Acute toxicity determination in mice (ALD50, ip); assay type: in vivo, female Swiss-Webster mice; details: in words, compared with the other compounds of the series
Experimental: as §1

animals = assay: Anti-hypertensive effect when administered to animals parenterally or orally; assay type: in vivo; details: in words
[4] = 100 mg/kg ip, suspension in 1% tragacanth
[5] = 100 mg/kg ip, suspension in 1% tragacanth, 1 hr
[6] = 100 mg/kg ip, suspension in 1% tragacanth, 2 hr
[7] = 100 mg/kg ip, suspension in 1% tragacanth, 4 hr
[8] = 10 mg/kg ip, solution in distilled water, 1 hr
[9] = 10 mg/kg ip, solution in distilled water, 2 hr
[10] = 10 mg/kg ip, solution in distilled water, 4 hr
[11] = 10 mg/kg ip, solution in distilled water, 24 hr
[12] = 25 mg/kg ip, solution in distilled water, 4 hr
[13] = 50 mg/kg ip, suspension in 1% tragacanth, 1 hr
[14] = 50 mg/kg ip, suspension in 1% tragacanth, 2 hr
[15] = 50 mg/kg ip, suspension in 1% tragacanth, 4 hr
[16] = 50 mg/kg ip, suspension in 1% tragacanth, 24 hr

SMILES | LD50 at 24 h ([1]; suspension in 1% tragacanth) | Mean change in heart rate from control ± SE [2, 4] | Mean change in systolic blood pressure from control ± SE [2, 4] | Mean change in heart rate from control ± SE [3, 5] | Mean change in systolic blood pressure from control ± SE [3, 5] | Mean change in heart rate from control ± SE [3, 6] | Mean change in systolic blood pressure from control ± SE [3, 6] | Mean change in heart rate from control ± SE [3, 7] | Mean change in systolic blood pressure from control ± SE [3, 7] | also measured
COc1cc2c(cc1CCNC(=O)c1ccccc1)CCC2 [I, 5-Benzoylaminoethyl-6-methoxyindan] | > 1000 mg/kg | -67 ± 22 beats per minute | -13 ± 4 mm Hg | -20 ± 23 beats per minute | -18 ± 8 mm Hg | +9 ± 30 beats per minute | -24 ± 7 mm Hg | -14 ± 18 beats per minute | -12 ± 6 mm Hg | –
COc1cc2c(cc1CCNC(=O)Cc1ccc(OC)c(OC)c1)CCC2 [IV, 5-(3,4-Dimethoxyphenylacetyl)aminoethyl-6-methoxyindan] | 500 to 1000 mg/kg | -27 ± 2 beats per minute | -19 ± 4 mm Hg | +23 ± 29 beats per minute | -10 ± 4 mm Hg | +57 ± 31 beats per minute | -10 ± 2 mm Hg | +14 ± 12 beats per minute | -19 ± 3 mm Hg | –
Cc1cc2c(cc1CCN)CCC2.Cl [Compound V, 5-Aminoethyl-6-methylindan HCl] | – | – | – | – | – | – | – | – | – | relative toxicity in the mouse (Mice): relatively more toxic in the mouse; LD50 at 24 h ([1]; solution in distilled water): 79 to 89 mg/kg; Mean change in heart rate from control ± SE ([2]; 25 mg/kg ip, solution in distilled water): -26 ± 14 beats per minute; Mean change in heart rate from control ± SE [3, 8]: +32 ± 17 beats per minute; Mean change in systolic blood pressure from control ± SE [3, 8]: -24 ± 8 mm Hg; Mean change in heart rate from control ± SE [3, 9]: +34 ± 14 beats per minute; Mean change in systolic blood pressure from control ± SE [3, 9]: -24 ± 4 mm Hg; Mean change in heart rate from control ± SE [3, 10]: +25 ± 11 beats per minute; Mean change in systolic blood pressure from control ± SE [3, 10]: -15 ± 5 mm Hg; Mean change in heart rate from control ± SE [3, 11]: -4 ± 11 beats per minute; Mean change in systolic blood pressure from control ± SE [3, 11]: -6 ± 4 mm Hg; Mean change in heart rate from control ± SE [3, 12]: +20 ± 21 beats per minute; Mean change in systolic blood pressure from control ± SE [3, 12]: -18 ± 4 mm Hg; Mean change in systolic blood pressure from control ± SE ([3]; 25 mg/kg ip, solution in distilled water, 24 hr): -11 ± 2 mm Hg
COc1cc2c(cc1CCNC(=O)c1cc(OC)c(OC)c(OC)c1)CCC2 [II, 5-(3,4,5-Trimethoxybenzoyl)aminoethyl-6-methoxyindan] | > 1000 mg/kg | -4 ± 10 beats per minute | -16 ± 4 mm Hg | +23 ± 28 beats per minute | -27 ± 8 mm Hg | +10 ± 28 beats per minute | -35 ± 13 mm Hg | +47 ± 29 beats per minute | -12 ± 8 mm Hg | –
Cc1cc2c(cc1CCN)CCC2 [5-aminoethyl-6-methylindan] | – | – | – | – | – | – | – | – | – | hypotensive properties (animals): has hypotensive properties; anti-hypertensive effect (animals; as base or acid addition salt, animals, parenterally or orally): exert an anti-hypertensive effect
Cc1cc2c(cc1CCNC(=O)Cc1ccccc1)CCC2 [VI] | > 1000 mg/kg | +2 ± 17 beats per minute | -3 ± 10 mm Hg | +17 ± 17 beats per minute | -7 ± 7 mm Hg | +24 ± 11 beats per minute | -2 ± 6 mm Hg | +23 ± 13 beats per minute | -1 ± 7 mm Hg | –
C[C@](N)(Cc1ccc(O)c(O)c1)C(=O)O [Methyldopa, reference compound] | – | – | – | – | – | – | – | – | – | Mean change in heart rate from control ± SE [3, 13]: +106 ± 26 beats per minute; Mean change in systolic blood pressure from control ± SE [3, 13]: -31 ± 4 mm Hg; Mean change in heart rate from control ± SE [3, 14]: +104 ± 28 beats per minute; Mean change in systolic blood pressure from control ± SE [3, 14]: -50 ±4 mm Hg; Mean change in heart rate from control ± SE [3, 15]: +31 ± 39 beats per minute; Mean change in systolic blood pressure from control ± SE [3, 15]: -48 ± 6 mm Hg; Mean change in heart rate from control ± SE [3, 16]: -19 ± 12 beats per minute; Mean change in systolic blood pressure from control ± SE [3, 16]: -16 ± 5 mm Hg; change in mean systolic blood pressure from control levels ([3]; in words, hypertensive rats, reference standards): significant depressions in mean systolic blood pressure from control levels
COc1ccc(CC(=O)NCCc2cc3c(cc2C)CCC3)cc1OC [VII, N-(3,4-Dimethoxyphenylacetyl)-5-aminoethyl-6-methylindan] | > 1000 mg/kg | +22 ± 12 beats per minute | -3 ± 7 mm Hg | +43 ± 10 beats per minute | -2 ± 6 mm Hg | +47 ± 12 beats per minute | -4 ± 9 mm Hg | +37 ± 15 beats per minute | +2 ± 5 mm Hg | –
COc1ccc(CNCCc2cc3c(cc2C)CCC3)cc1OC.Cl [VIII, N-(3,4-Dimethoxybenzyl)-5-aminoethyl-6-methylindan hydrochloride] | 140 to 178 mg/kg | -14 ± 10 beats per minute | -17 ± 2 mm Hg | -55 ± 17 beats per minute | -58 ± 4 mm Hg | 0 ± 14 beats per minute | -60 ± 7 mm Hg | +4 ± 8 beats per minute | -47 ± 2 mm Hg | –
COc1cc2c(cc1CCNC(=O)Cc1ccccc1)CCC2 [III, 5-Phenylacetylaminoethyl-6-methoxyindan] | 1000 to 1500 mg/kg | +61 ± 12 beats per minute | -13 ± 4 mm Hg | +13 ± 12 beats per minute | -32 ± 7 mm Hg | +54 ± 25 beats per minute | -24 ± 5 mm Hg | +19 ± 21 beats per minute | -21 ± 4 mm Hg | –
